In patent publication US7989642B2, “Process for producing powdered compositions containing highly unsaturated fatty acid esters of ascorbic acid and powdered compositions containing the esters” (Suntory Holdings Limited, priority 2003, dated 2011):

Assay: Test for the stability against oxidation of arachidonic acid moiety (storage at 37° C., humidity 12%, gas chromatography of non-oxidized arachidonic acid)
Format: physicochemical
Conditions: stored at 37° C.
Method: The resulting microcapsulated powder of 6-O-arachidonoyl-ascorbate was left in the air at 37° C. and a humidity of 12% for 30 days to determine the stability of the powder against oxidation (See, Example 4 below). During the 30-day period, samples were taken at predetermined intervals and were hydrolyzed into methyl arachidonate, which in turn was subjected to gas chromatography to determine the amount of non-oxidized arachidonic acid. As shown, the stability of any polysaccharides used was improved by powdering. The increase in the stability against oxidation was particularly significant in gum Arabic and soybean polysaccharide.
240 mg of each powder product (microcapsule) obtained in each example was placed in a flat bottom glass container (1.5 cm inner diameter, 3 cm high). Using an aqueous solution of lithium chloride, the humidity inside the container was maintained at 12% and the powder was stored at 37° C. The cup was taken out at predetermined intervals and the 6-O-arachidonoyl-ascorbate encapsulated in the microcapsules was hydrolyzed, followed by esterification with methyl groups. The amount of non-oxidized arachidonic acid was determined by gas chromatography (GC-14B, manufactured by SHIMADZU CORP.). The samples were analyzed using methyl myristate as an internal standard. […]

Row | Compound | proportion of the arachidonic acid left unoxidized (after 30 days, relative to Day 0) [%] | disappearance of non-oxidized arachidonic acid
1 | 6-O-arachidonoyl-ascorbate | 30 | –
2 | CCCCC/C=C\C/C=C\C/C=C\C/C=C\CCCC(=O)O [non-capsulated arachidonic acid, arachidonic acid] | – | disappeared in a few hours
